Source: ChEMBL document CHEMBL3885881, “DrugMatrix”

Species on record: Rattus norvegicus
Experiment: DrugMatrix - Regimen: Daily Repeat
Format: toxicity, organism-based, Sprague-Dawley
Design: regimen Daily Repeat, gender Male, age 6-8 weeks
Details: in vivo, po, […], route oral GAVAGE; for BASOPHIL / EOSINOPHIL / ERYTHROCYTE COUNT / HEMATOCRIT / HEMOGLOBIN / LEUKOCYTE COUNT / LYMPHOCYTE / MEAN CORPUSCULAR HEMOGLOBIN / MEAN CORPUSCULAR HEMOGLOBIN CONCENTRATION / MEAN CORPUSCULAR VOLUME / MONOCYTE / NEUTROPHIL / PLATELET COUNT / ABSOLUTE BASOPHIL / ABSOLUTE EOSINOPHIL / ABSOLUTE LYMPHOCYTE / ABSOLUTE MONOCYTE / ABSOLUTE SEGMENTED NEUTROPHIL / NUCLEATED RED BLOOD CELLS: tissue Blood; for ALANINE AMINOTRANSFERASE / ALBUMIN / ALKALINE PHOSPHATASE / ASPARTATE AMINOTRANSFERASE / BLOOD UREA NITROGEN / CHLORIDE / CHOLESTEROL / CREATINE PHOSPHOKINASE / CREATININE / GLUCOSE / PHOSPHORUS / POTASSIUM / SODIUM / TOTAL BILIRUBIN / TOTAL PROTEIN / CARBON DIOXIDE / LACTATE DEHYDROGENASE / LIPASE / URIC ACID: tissue Plasma
[1] = 11 mg/kg, dose level High, time 28 day
[2] = 72 h, dose 2.5 mg/Kg, dose level Low, time 3 day
[3] = 120 h, dose 2.5 mg/Kg, dose level Low, time 5 day

In the case of `O=[N+]([O-])c1cc([As](=O)(O)O)ccc1O` [ROXARSONE], the BASOPHIL [1] is reported as 0.47%, the EOSINOPHIL [1] is reported as 0.51% and the “ERYTHROCYTE COUNT” value [1] is reported as 8.5 x10E6/uL. The HEMATOCRIT [1] was 51.09%, the HEMOGLOBIN [1] was 16.79 G/DL and the “LEUKOCYTE COUNT” value [1] was 12.9 x10E3/uL. For the same molecule, the LYMPHOCYTE [1] was 81.69%, the “MEAN CORPUSCULAR HEMOGLOBIN” value [1] was 19.74 pg and the “MEAN CORPUSCULAR HEMOGLOBIN CONCENTRATION” value [1] was 32.83 G/DL. For the same molecule, the “MEAN CORPUSCULAR VOLUME” value [1] was 60.14 fL, the MONOCYTE [1] was 1.78% and the NEUTROPHIL [1] was 14.18%. The “PLATELET COUNT” value [1] was 1300.33 x10E3/uL, the “ALANINE AMINOTRANSFERASE” value [1] was 30.56 u/L and the ALBUMIN [1] was 3.98 G/DL. The “ALKALINE PHOSPHATASE” value [1] was 205 u/L, the “ASPARTATE AMINOTRANSFERASE” value [1] was 60.78 u/L and the “BLOOD UREA NITROGEN” value [1] was 11.78 mg/dL. The CHLORIDE [1] was 107.33 MEQ/L, the CHOLESTEROL [1] was 57.22 mg/dL and the “CREATINE PHOSPHOKINASE” value [1] was 179.11 u/L. For the same molecule, the CREATININE [1] was 0.44 mg/dL, the GLUCOSE [1] was 136.78 mg/dL and the PHOSPHORUS [1] was 11.58 mg/dL. The POTASSIUM [1] was 6.69 MEQ/L, the SODIUM [1] was 152.22 MEQ/L and the “TOTAL BILIRUBIN” value [1] was 0.23 mg/dL. For the same molecule, the “TOTAL PROTEIN” value [1] was 6.68 G/DL, the “ABSOLUTE BASOPHIL” value [2] was 0 CELLS/uL and the “ABSOLUTE EOSINOPHIL” value [2] was 0 CELLS/uL. For the same molecule, the “ABSOLUTE LYMPHOCYTE” value [2] was 9950.67 CELLS/uL, the “ABSOLUTE MONOCYTE” value [2] was 307.67 CELLS/uL and the “ABSOLUTE SEGMENTED NEUTROPHIL” value [2] was 1408.33 CELLS/uL. For the same molecule, the BASOPHIL [2] was 0%, the EOSINOPHIL [2] was 0% and the “ERYTHROCYTE COUNT” value [2] was 5.09 x10E6/uL. For the same molecule, the HEMATOCRIT [2] was 33.27%, the HEMOGLOBIN [2] was 13.17 G/DL and the “LEUKOCYTE COUNT” value [2] was 11.67 x10E3/uL. For the same molecule, the LYMPHOCYTE [2] was 85.33%, the “MEAN CORPUSCULAR HEMOGLOBIN” value [2] was 25.9 pg and the “MEAN CORPUSCULAR HEMOGLOBIN CONCENTRATION” value [2] was 39.6 G/DL. For the same molecule, the “MEAN CORPUSCULAR VOLUME” value [2] was 65.4 fL, the MONOCYTE [2] was 2.67% and the NEUTROPHIL [2] was 12%. The “NUCLEATED RED BLOOD CELLS” value [2] was 0 /100WBC, the “PLATELET COUNT” value [2] was 1052.67 x10E3/uL and the “ALANINE AMINOTRANSFERASE” value [2] was 79.33 u/L. The ALBUMIN [2] was 4.07 G/DL, the “ALKALINE PHOSPHATASE” value [2] was 426.33 u/L and the “ASPARTATE AMINOTRANSFERASE” value [2] was 104 u/L. For the same molecule, the “BLOOD UREA NITROGEN” value [2] was 11 mg/dL, the “CARBON DIOXIDE” value [2] was 22 mmol/L and the CHLORIDE [2] was 103.67 MEQ/L. The CHOLESTEROL [2] was 66.33 mg/dL, the “CREATINE PHOSPHOKINASE” value [2] was 289.33 u/L and the CREATININE [2] was 0.18 mg/dL. For the same molecule, the GLUCOSE [2] was 163.33 mg/dL, the “LACTATE DEHYDROGENASE” value [2] was 290.33 u/L and the LIPASE [2] was 12.33 u/L. It also gave a PHOSPHORUS [2] of 11 mg/dL, a POTASSIUM [2] of 6.16 MEQ/L and an SODIUM [2] of 142.77 MEQ/L. The “TOTAL BILIRUBIN” value [2] was 0.2 mg/dL, the “TOTAL PROTEIN” value [2] was 5.47 G/DL and the “URIC ACID” value [2] was 1.57 mg/dL. The “ABSOLUTE BASOPHIL” value [3] was 0 CELLS/uL, the “ABSOLUTE EOSINOPHIL” value [3] was 60.33 CELLS/uL and the “ABSOLUTE LYMPHOCYTE” value [3] was 15548.33 CELLS/uL. For the same molecule, the “ABSOLUTE MONOCYTE” value [3] was 0 CELLS/uL, the “ABSOLUTE SEGMENTED NEUTROPHIL” value [3] was 2058 CELLS/uL and the BASOPHIL [3] was 0%. The EOSINOPHIL [3] was 0.33%, the “ERYTHROCYTE COUNT” value [3] was 5.56 x10E6/uL and the HEMATOCRIT [3] was 35.6%. The HEMOGLOBIN [3] was 14.43 G/DL, the “LEUKOCYTE COUNT” value [3] was 17.67 x10E3/uL and the LYMPHOCYTE [3] was 88%. For the same molecule, the “MEAN CORPUSCULAR HEMOGLOBIN” value [3] was 26 pg, the “MEAN CORPUSCULAR HEMOGLOBIN CONCENTRATION” value [3] was 40.53 G/DL and the “MEAN CORPUSCULAR VOLUME” value [3] was 64.1 fL. The MONOCYTE [3] was 0%, the NEUTROPHIL [3] was 11.67% and the “NUCLEATED RED BLOOD CELLS” value [3] was 0.33 /100WBC. The “PLATELET COUNT” value [3] was 1233.67 x10E3/uL, the “ALANINE AMINOTRANSFERASE” value [3] was 63.33 u/L and the ALBUMIN [3] was 4.23 G/DL. For the same molecule, the “ALKALINE PHOSPHATASE” value [3] was 389.33 u/L, the “ASPARTATE AMINOTRANSFERASE” value [3] was 94 u/L and the “BLOOD UREA NITROGEN” value [3] was 13 mg/dL. For the same molecule, the “CARBON DIOXIDE” value [3] was 32.33 mmol/L, the CHLORIDE [3] was 100.67 MEQ/L and the CHOLESTEROL [3] was 60.67 mg/dL. The “CREATINE PHOSPHOKINASE” value [3] was 298.67 u/L, the CREATININE [3] was 0.18 mg/dL and the GLUCOSE [3] was 151 mg/dL. For the same molecule, the “LACTATE DEHYDROGENASE” value [3] was 370 u/L, the LIPASE [3] was 11.67 u/L and the PHOSPHORUS [3] was 10.73 mg/dL. For the same molecule, the POTASSIUM [3] was 6.25 MEQ/L, the SODIUM [3] was 142.83 MEQ/L and the “TOTAL BILIRUBIN” value [3] was 0.2 mg/dL. The “TOTAL PROTEIN” value [3] was 6.03 G/DL and the “URIC ACID” value [3] was 1.77 mg/dL.
